According to ChEMBL document CHEMBL3046383, “Enantioselective Herbicidal Activity of Chiral α-Methylbenzylphenylureas against Cyperaceae and Echinochloa Paddy Weeds” (Biosci Biotechnol Biochem, 1998):
Active and inactive are the calls of the source. No rule for the calls is given here.

How the values were obtained:
Cyperus serotinus = assay: Herbicidal activity against Cyperus serotinus assessed as phytotoxic activity ratings (0- no effect to 5-complete killing rating scale) at 3.1 to 100 g/a measured after 3 weeks post compound treatment under green house conditions; assay type: functional
[1] = test system: Schoenoplectiella juncoides; assay: Herbicidal activity against Schoenoplectiella juncoides var. Hotarui Ohwi assessed as phytotoxic activity ratings (0- no effect to 5-complete killing rating scale) at 100 g/a measured after 3 weeks post compound treatment under green house conditions; assay type: functional
Cyperus difformis = assay: Herbicidal activity against Cyperus difformis assessed as phytotoxic activity ratings (0- no effect to 5-complete killing rating scale) at 100 g/a measured after 3 weeks post compound treatment under green house conditions; assay type: functional
Echinochloa oryzicola = assay: Herbicidal activity against Echinochloa oryzicola assessed as phytotoxic activity ratings (0- no effect to 5-complete killing rating scale) at 100 g/a measured after 3 weeks post compound treatment under green house conditions; assay type: functional
Oryza sativa [2] = assay: Phytotoxicity against transplanted Oryza sativa (rice) seedlings assessed as phytotoxic activity ratings (0- no effect to 5-complete killing rating scale) at 100 g/a measured after 3 weeks post compound treatment under green house conditions; assay type: organism-based; conditions: in vivo, 504 h
Oryza sativa [3] = assay: Phytotoxicity against directly seeded Oryza sativa (rice) seedlings assessed as phytotoxic activity ratings (0- no effect to 5-complete killing rating scale) at 100 g/a measured after 3 weeks post compound treatment under green house conditions; assay type: organism-based; conditions: in vivo, 504 h

Q: With C[C@H](NC(=O)Nc1cc(F)cc(F)c1)c1ccccc1 as the compound, how does the Activity (Cyperus serotinus) read?
A: The Activity was “inactive”.

Q: What about the Activity [1] of the same compound?
A: The Activity was 0%.

Q: And the Activity (Cyperus difformis)?
A: Its Activity is 0%.

Q: And the Activity (Echinochloa oryzicola)?
A: Its Activity is 10%.

Q: And the Activity (Oryza sativa [2])?
A: The Activity was 0%.

Q: With C[C@H](NC(=O)Nc1ccccc1Br)c1ccccc1 as the compound, how does the Activity (Cyperus serotinus) read?
A: Its Activity is “inactive”.

Q: And the Activity [1]?
A: The Activity was 0%.

Q: And the Activity (Cyperus difformis)?
A: The Activity was 10%.

Q: What about the Activity (Echinochloa oryzicola) of the same compound?
A: The Activity was 0%.

Q: What about the Activity (Oryza sativa [3]) of the same compound?
A: The Activity was 0%.

Q: And the Activity (Oryza sativa [2])?
A: The Activity was 0%.

Q: With C[C@@H](NC(=O)Nc1cc(F)cc(F)c1)c1ccccc1 as the compound, how does the Activity (Cyperus serotinus) read?
A: The Activity was “inactive”.

Q: And the Activity [1]?
A: Its Activity is 0%.

Q: And the Activity (Cyperus difformis)?
A: Its Activity is 0%.

Q: And the Activity (Echinochloa oryzicola)?
A: Its Activity is 0%.

Q: And the Activity (Oryza sativa [3])?
A: The Activity was 0%.

Q: What about the Activity (Oryza sativa [2]) of the same compound?
A: The Activity was 0%.

Q: What does the source list for C[C@@H](NC(=O)Nc1ccccc1Cl)c1ccccc1?
A: Activity (Cyperus serotinus): inactive; Activity [1]: 0%; Activity (Cyperus difformis): 10%; Activity (Echinochloa oryzicola): 0%; Activity (Oryza sativa [3]): 0%; Activity (Oryza sativa [2]): 0%

Q: C[C@@H](NC(=O)Nc1ccc(Cl)cc1)c1ccccc1 was tested. Which Activity (Cyperus serotinus) did it give?
A: The Activity was “inactive”.

Q: And the Activity [1]?
A: Its Activity is 0%.

Q: What about the Activity (Cyperus difformis) of the same compound?
A: The Activity was 0%.

Q: What about the Activity (Echinochloa oryzicola) of the same compound?
A: The Activity was 0%.

Q: And the Activity (Oryza sativa [3])?
A: The Activity was 0%.

Q: What about the Activity (Oryza sativa [2]) of the same compound?
A: The Activity was 0%.

Q: What does the source list for COc1ccccc1NC(=O)N[C@H](C)c1ccccc1?
A: Activity (Cyperus serotinus): inactive; Activity [1]: 0%; Activity (Cyperus difformis): 0%; Activity (Echinochloa oryzicola): 0%; Activity (Oryza sativa [3]): 0%; Activity (Oryza sativa [2]): 0%

Q: Which results are given for C[C@H](NC(=O)Nc1ccc(C(C)(C)C)cc1)c1ccccc1?
A: Activity (Cyperus serotinus): inactive; Activity [1]: 0%; Activity (Cyperus difformis): 0%; Activity (Echinochloa oryzicola): 10%; Activity (Oryza sativa [3]): 0%; Activity (Oryza sativa [2]): 0%

Q: How did the Activity (Cyperus serotinus) turn out when C[C@@H](NC(=O)Nc1ccc(C(F)(F)F)cc1)c1ccccc1 was run?
A: Its Activity is “inactive”.

Q: What about the Activity [1] of the same compound?
A: Its Activity is 0%.

Q: And the Activity (Cyperus difformis)?
A: Its Activity is 0%.

Q: And the Activity (Echinochloa oryzicola)?
A: The Activity was 0%.

Q: What about the Activity (Oryza sativa [3]) of the same compound?
A: Its Activity is 0%.

Q: What about the Activity (Oryza sativa [2]) of the same compound?
A: The Activity was 0%.

Q: COc1ccc(NC(=O)N[C@@H](C)c2ccccc2)cc1 was tested. Which Activity (Cyperus serotinus) did it give?
A: Its Activity is “inactive”.

Q: And the Activity [1]?
A: Its Activity is 0%.

Q: What about the Activity (Cyperus difformis) of the same compound?
A: Its Activity is 0%.

Q: And the Activity (Echinochloa oryzicola)?
A: Its Activity is 0%.

Q: And the Activity (Oryza sativa [3])?
A: Its Activity is 0%.

Q: And the Activity (Oryza sativa [2])?
A: The Activity was 0%.

Q: Which results are given for C[C@H](NC(=O)Nc1ccc(F)cc1)c1ccccc1?
A: Activity (Cyperus serotinus): inactive; Activity [1]: 0%; Activity (Cyperus difformis): 0%; Activity (Echinochloa oryzicola): 0%; Activity (Oryza sativa [3]): 0%; Activity (Oryza sativa [2]): 0%

Q: Which results are given for CCOC(=O)c1cccc(NC(=O)N[C@@H](C)c2ccccc2)c1?
A: Activity (Cyperus serotinus): inactive; Activity [1]: 0%; Activity (Cyperus difformis): 0%; Activity (Echinochloa oryzicola): 0%; Activity (Oryza sativa [3]): 0%; Activity (Oryza sativa [2]): 0%

Q: Which Activity (Cyperus serotinus) does the source give for C[C@H](NC(=O)Nc1ccc(Cl)cc1)c1ccccc1 here?
A: The Activity was “inactive”.

Q: And the Activity [1]?
A: The Activity was 0%.

Q: What about the Activity (Cyperus difformis) of the same compound?
A: The Activity was 0%.

Q: And the Activity (Echinochloa oryzicola)?
A: The Activity was 0%.

Q: And the Activity (Oryza sativa [3])?
A: Its Activity is 0%.

Q: What about the Activity (Oryza sativa [2]) of the same compound?
A: Its Activity is 0%.

Q: What does the source list for CCCCCCCc1ccc(NC(=O)N[C@@H](C)c2ccccc2)cc1?
A: Activity (Cyperus serotinus): inactive; Activity [1]: 0%; Activity (Cyperus difformis): 0%; Activity (Echinochloa oryzicola): 0%; Activity (Oryza sativa [3]): 0%; Activity (Oryza sativa [2]): 0%

Q: Which Activity [1] does the source give for CCCc1ccc(NC(=O)N[C@@H](C)c2ccccc2)cc1 here?
A: The Activity was 0%.

Q: What about the Activity (Cyperus difformis) of the same compound?
A: Its Activity is 40%.

Q: What about the Activity (Echinochloa oryzicola) of the same compound?
A: Its Activity is 10%.

Q: What about the Activity (Oryza sativa [3]) of the same compound?
A: The Activity was 0%.

Q: What about the Activity (Oryza sativa [2]) of the same compound?
A: The Activity was 0%.

Q: What does the source list for C[C@H](NC(=O)Nc1ccc(Br)cc1)c1ccccc1?
A: Activity (Cyperus serotinus): inactive; Activity (Cyperus difformis): 0%; Activity (Echinochloa oryzicola): 0%; Activity (Oryza sativa [3]): 0%; Activity (Oryza sativa [2]): 0%

Q: With C[C@@H](NC(=O)Nc1ccccc1I)c1ccccc1 as the compound, how does the Activity (Cyperus serotinus) read?
A: The Activity was “inactive”.

Q: What about the Activity (Cyperus difformis) of the same compound?
A: The Activity was 10%.

Q: What about the Activity (Echinochloa oryzicola) of the same compound?
A: The Activity was 0%.

Q: And the Activity (Oryza sativa [3])?
A: The Activity was 0%.

Q: What about the Activity (Oryza sativa [2]) of the same compound?
A: The Activity was 0%.

Q: C[C@H](NC(=O)Nc1cc(C(C)(C)C)ccc1C(C)(C)C)c1ccccc1 was tested. Which Activity (Cyperus serotinus) did it give?
A: The Activity was “inactive”.

Q: What about the Activity (Cyperus difformis) of the same compound?
A: Its Activity is 0%.

Q: What about the Activity (Echinochloa oryzicola) of the same compound?
A: Its Activity is 0%.

Q: And the Activity (Oryza sativa [3])?
A: The Activity was 0%.

Q: And the Activity (Oryza sativa [2])?
A: The Activity was 0%.

Q: What does the source list for C[C@@H](NC(=O)Nc1cccc(C(F)(F)F)c1F)c1ccccc1?
A: Activity (Cyperus serotinus): inactive; Activity (Cyperus difformis): 0%; Activity (Echinochloa oryzicola): 0%; Activity (Oryza sativa [3]): 0%; Activity (Oryza sativa [2]): 0%
